Source: ChEMBL document CHEMBL3785006, “Discovery of 2-Indole-acylsulfonamide Myeloid Cell Leukemia 1 (Mcl-1) Inhibitors Using Fragment-Based Methods” (J Med Chem, 2016)
pIC50, pKi: −log10 of the molar value.

What was measured:
[1] = target: T1, Induced myeloid leukemia cell differentiation protein Mcl-1 (Homo sapiens, UniProt Q07820)
[2] = target: T1, Induced myeloid leukemia cell differentiation protein Mcl-1; remark: listed apart in the source
[3] = target: T1, Induced myeloid leukemia cell differentiation protein Mcl-1; remark: listed apart in the source
[4] = target: Bcl-2-like protein 1 (Homo sapiens, UniProt Q07817)
Bcl-2-like protein 1, sequence (Q07817 whole entry): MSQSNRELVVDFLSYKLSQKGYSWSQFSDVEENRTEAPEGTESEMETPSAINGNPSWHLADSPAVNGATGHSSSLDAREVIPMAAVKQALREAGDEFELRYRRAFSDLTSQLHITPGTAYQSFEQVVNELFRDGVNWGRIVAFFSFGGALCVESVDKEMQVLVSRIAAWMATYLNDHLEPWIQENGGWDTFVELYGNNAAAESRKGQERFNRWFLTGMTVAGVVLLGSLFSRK

T1 sequence (Q07820 whole entry): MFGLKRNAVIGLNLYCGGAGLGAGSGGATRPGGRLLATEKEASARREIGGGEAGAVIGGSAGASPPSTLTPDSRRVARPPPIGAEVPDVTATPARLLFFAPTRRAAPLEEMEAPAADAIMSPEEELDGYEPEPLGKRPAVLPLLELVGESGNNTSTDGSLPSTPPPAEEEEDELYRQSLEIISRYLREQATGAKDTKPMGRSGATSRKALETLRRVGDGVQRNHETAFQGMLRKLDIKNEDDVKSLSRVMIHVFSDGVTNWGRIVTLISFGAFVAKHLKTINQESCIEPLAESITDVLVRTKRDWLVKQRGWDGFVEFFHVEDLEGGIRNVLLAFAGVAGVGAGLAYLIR

## Cc1cc(OCCCc2c(C(=O)NS(=O)(=O)CCNC(=O)[C@H]3Cc4ccccc4N3)[nH]c3cc(Cl)ccc23)cc(C)c1Cl
[1]
  pKi: 7.55

## Cc1cc(OCCCc2c(C(=O)NS(=O)(=O)CCNC(=O)c3ccccc3F)[nH]c3ccccc23)cc(C)c1Cl
[1]
  pKi: 6.47

## Cc1cc(OCCCc2c(C(=O)NS(=O)(=O)CCNC(=O)c3cc(-c4ccccc4O)n[nH]3)[nH]c3cc(Cl)ccc23)cc(C)c1Cl
[1]
  pKi: 6.51

## Cc1cc(OCCCc2c(C(=O)NS(=O)(=O)c3ccncc3)[nH]c3ccccc23)cc(C)c1Cl
[1]
  pKi: 6.47

## Cc1cc(OCCCc2c(C(=O)NS(=O)(=O)CCNC(=O)CC(C)C)[nH]c3cc(Cl)ccc23)cc(C)c1Cl
[1]
  pKi: 8.00

## Cc1cc(OCCCc2c(C(=O)NS(=O)(=O)CCNC(=O)c3ccc(C(F)(F)F)cc3)[nH]c3cc(Cl)ccc23)cc(C)c1Cl
[1]
  pKi: 6.92

## Cc1cc(OCCCc2c(C(=O)NS(=O)(=O)c3ccccc3)[nH]c3c(-c4cccnc4C)c(Cl)ccc23)cc(C)c1Cl
[1]
  pKi: > 8.00
[2]
  pKi: 6.84
[3]
  pKi: 7.74

## Cc1cc(OCCCc2c(C(=O)NS(=O)(=O)CCNC(=O)c3cccc(C(F)(F)F)c3)[nH]c3cc(Cl)ccc23)cc(C)c1Cl
[1]
  pKi: 7.10

## Cc1cc(OCCCc2c(C(=O)NS(=O)(=O)CCNC(=O)[C@@H]3Cc4ccccc4N3)[nH]c3ccccc23)cc(C)c1Cl
[1]
  pKi: 6.71

## Cc1cc(OCCCc2c(C(=O)NS(=O)(=O)c3cccc(CNC(=O)C(C)C)c3)[nH]c3c(-c4c(C)nn(C)c4C)c(Cl)ccc23)cc(C)c1Cl
[1]
  pKi: > 8.00
[2]
  pKi: 7.27
[3]
  pKi: 7.80
[4]
  pKi: < 4.30

## Cc1cc(OCCCc2c(C(=O)NS(=O)(=O)CCOc3ccccc3)[nH]c3ccccc23)cc(C)c1Cl
[1]
  pKi: 6.49

## CC(=O)NCCS(=O)(=O)NC(=O)c1[nH]c2ccccc2c1CCCOc1cc(C)c(Cl)c(C)c1
[1]
  pKi: 6.18

## Cc1cc(OCCCc2c(C(=O)NS(C)(=O)=O)[nH]c3ccccc23)cc(C)c1Cl
[1]
  pKi: 6.18

## Cc1cc(OCCCc2c(C(=O)NS(=O)(=O)c3ccc(C(=O)O)o3)[nH]c3c(-c4c(C)nn(C)c4C)c(Cl)ccc23)cc(C)c1Cl
[3]
  pIC50: 8.68
  pKi: 9.11

## Cc1cc(OCCCc2c(C(=O)NS(=O)(=O)c3ccc(C(=O)NCc4ccccc4)o3)[nH]c3c(-c4c(C)nn(C)c4C)c(Cl)ccc23)cc(C)c1Cl
[1]
  pKi: > 8.00
[2]
  pKi: 7.08
[3]
  pKi: 8.62
[4]
  pKi: < 4.30

## Cc1cc(OCCCc2c(C(=O)NS(=O)(=O)CCNC(=O)c3ccccc3)[nH]c3ccccc23)cc(C)c1Cl
[1]
  pKi: 6.37

## Cc1cc(OCCCc2c(C(=O)NS(=O)(=O)CCNC(=O)C3CCCCC3)[nH]c3cc(Cl)ccc23)cc(C)c1Cl
[1]
  pKi: 7.26

## Cc1cc(OCCCc2c(C(=O)NS(=O)(=O)c3ccccc3)[nH]c3cc(Cl)ccc23)cc(C)c1Cl
[1]
  pKi: 7.04

## Cc1cc(OCCCc2c(C(=O)NS(=O)(=O)c3ccccc3)[nH]c3c(-c4cccnc4)cccc23)cc(C)c1Cl
[1]
  pKi: 6.69

## Cc1cc(OCCCc2c(C(=O)NS(=O)(=O)CCNC(=O)c3cn(C)c4ccccc34)[nH]c3ccccc23)cc(C)c1Cl
[1]
  pKi: 6.36

## Cc1cc(OCCCc2c(C(=O)NS(=O)(=O)c3cccc(CNC(=O)c4cccc(C(F)(F)F)c4)c3)[nH]c3c(-c4c(C)nn(C)c4C)c(Cl)ccc23)cc(C)c1Cl
[1]
  pKi: > 8.00
[2]
  pKi: 7.11
[3]
  pKi: 8.15
[4]
  pKi: 4.89

## Cc1cc(OCCCc2c(C(=O)NS(=O)(=O)CCNC(=O)c3cccc(F)c3)[nH]c3ccccc23)cc(C)c1Cl
[1]
  pKi: 7.00

## Cc1cc(OCCCc2c(C(=O)NS(=O)(=O)CCNS(=O)(=O)C3CCCCC3)[nH]c3ccccc23)cc(C)c1Cl
[1]
  pKi: 6.60

## Cc1cc(OCCCc2c(C(=O)NS(=O)(=O)c3ccnc(NCCc4ccccc4)c3)[nH]c3c(-c4c(C)nn(C)c4C)c(Cl)ccc23)cc(C)c1Cl
[1]
  pKi: > 8.00
[2]
  pKi: 7.11
[3]
  pKi: 8.92
[4]
  pKi: 5.96

## Cc1cc(OCCCc2c(C(=O)NS(=O)(=O)CCNC(=O)c3ccccc3C(F)(F)F)[nH]c3cc(Cl)ccc23)cc(C)c1Cl
[1]
  pKi: 7.74

## Cc1cc(OCCCc2c(C(=O)NS(=O)(=O)c3ccccc3)[nH]c3c(-c4cccnc4C)cccc23)cc(C)c1Cl
[1]
  pKi: 7.85

## Cc1cc(OCCCc2c(C(=O)NS(=O)(=O)CCCNC3CCCCC3)[nH]c3ccccc23)cc(C)c1Cl
[1]
  pKi: 5.99

## Cc1cc(OCCCc2c(C(=O)NS(=O)(=O)CCNC(=O)C3CCCCC3)[nH]c3ccccc23)cc(C)c1Cl
[1]
  pKi: 6.93

## Cc1cc(OCCCc2c(C(=O)NS(=O)(=O)CCNC(=O)CC3CCCCC3)[nH]c3ccccc23)cc(C)c1Cl
[1]
  pKi: 5.96

## Cc1cc(OCCCc2c(C(=O)NS(=O)(=O)c3ccccc3)[nH]c3c(-c4c(C)n[nH]c4C)c(Cl)ccc23)cc(C)c1Cl
[1]
  pKi: > 8.00
[2]
  pKi: 6.83

## Cc1cc(OCCCc2c(C(=O)NS(=O)(=O)c3cccc(CNC(=O)c4ccccc4C(F)(F)F)c3)[nH]c3c(-c4c(C)nn(C)c4C)c(Cl)ccc23)cc(C)c1Cl
[1]
  pKi: > 8.00
[2]
  pKi: 7.10
[3]
  pKi: 8.30
[4]
  pKi: 5.35

## Cc1cc(OCCCc2c(C(=O)NS(=O)(=O)c3cccc(CNC(=O)c4ccoc4)c3)[nH]c3c(-c4c(C)nn(C)c4C)c(Cl)ccc23)cc(C)c1Cl
[1]
  pKi: > 8.00
[2]
  pKi: 7.16
[3]
  pKi: 8.54
[4]
  pKi: 5.85

## Cc1cc(OCCCc2c(C(=O)NS(C)(=O)=O)[nH]c3cc(Cl)ccc23)cc(C)c1Cl
[1]
  pKi: 6.68

## Cc1cc(OCCCc2c(C(=O)NS(=O)(=O)CCNC(=O)c3ccc4[nH]ccc4c3)[nH]c3ccccc23)cc(C)c1Cl
[1]
  pKi: 6.57

## CC(=O)NCCS(=O)(=O)NC(=O)c1[nH]c2cc(Cl)ccc2c1CCCOc1cc(C)c(Cl)c(C)c1
[1]
  pKi: 6.68

## Cc1cc(OCCCc2c(C(=O)NS(=O)(=O)c3ccco3)[nH]c3cc(Cl)ccc23)cc(C)c1Cl
[1]
  pKi: 6.94

## CC(=O)NCc1cccc(S(=O)(=O)NC(=O)c2[nH]c3c(-c4c(C)nn(C)c4C)c(Cl)ccc3c2CCCOc2cc(C)c(Cl)c(C)c2)c1
[1]
  pKi: > 8.00
[2]
  pKi: 7.38
[3]
  pKi: 7.95
[4]
  pKi: 5.04

## Cc1cc(OCCCc2c(C(=O)NS(=O)(=O)CCNC(=O)c3ccco3)[nH]c3cc(Cl)ccc23)cc(C)c1Cl
[1]
  pKi: 7.28

## Cc1cc(OCCCc2c(C(=O)NS(=O)(=O)CCNC(=O)Cc3cn(C)c4ccccc34)[nH]c3ccccc23)cc(C)c1Cl
[1]
  pKi: 6.53

## Cc1cc(OCCCc2c(C(=O)NS(=O)(=O)CCNC(=O)c3cccn3-c3ccccc3)[nH]c3ccccc23)cc(C)c1Cl
[1]
  pKi: 6.86

## Cc1cc(OCCCc2c(C(=O)NS(=O)(=O)c3cccc(CNC(=O)CC(C)C)c3)[nH]c3c(-c4c(C)nn(C)c4C)c(Cl)ccc23)cc(C)c1Cl
[1]
  pKi: > 8.00
[2]
  pKi: 7.04
[3]
  pKi: 8.25
[4]
  pKi: 5.81

## Cc1cc(OCCCc2c(C(=O)NS(=O)(=O)CCNC(=O)c3ccc[nH]3)[nH]c3cc(Cl)ccc23)cc(C)c1Cl
[1]
  pKi: 6.11

## CCC(=O)NCCS(=O)(=O)NC(=O)c1[nH]c2cc(Cl)ccc2c1CCCOc1cc(C)c(Cl)c(C)c1
[1]
  pKi: 7.06

## Cc1cc(OCCCc2c(C(=O)NS(=O)(=O)CCNC(=O)c3ccoc3)[nH]c3cc(Cl)ccc23)cc(C)c1Cl
[1]
  pKi: 7.72

## Cc1cc(OCCCc2c(C(=O)NS(=O)(=O)c3ccnc(N(C)CCc4ccccc4)c3)[nH]c3c(-c4c(C)nn(C)c4C)c(Cl)ccc23)cc(C)c1Cl
[1]
  pKi: > 8.00
[2]
  pKi: 6.65
[3]
  pKi: 8.60
[4]
  pKi: 6.03

## Cc1cc(OCCCc2c(C(=O)NS(=O)(=O)c3ccnc(NCCC(C)C)c3)[nH]c3c(-c4c(C)nn(C)c4C)c(Cl)ccc23)cc(C)c1Cl
[1]
  pKi: > 8.00
[2]
  pKi: 6.75
[3]
  pKi: 8.25
[4]
  pKi: 5.35

## Cc1cc(OCCCc2c(C(=O)NS(=O)(=O)CCNC(=O)C(F)(F)F)[nH]c3cc(Cl)ccc23)cc(C)c1Cl
[1]
  pKi: 6.94

## Cc1cc(OCCCc2c(C(=O)NS(=O)(=O)c3ccnc(NC4Cc5ccccc5C4)c3)[nH]c3c(-c4c(C)nn(C)c4C)c(Cl)ccc23)cc(C)c1Cl
[1]
  pKi: > 8.00
[2]
  pKi: 7.21
[3]
  pKi: 9.00
[4]
  pKi: 6.00

## Cc1ccncc1-c1cccc2c(CCCOc3cc(C)c(Cl)c(C)c3)c(C(=O)NS(=O)(=O)c3ccccc3)[nH]c12
[1]
  pKi: 7.44

## CS(=O)(=O)NC(=O)c1[nH]c2cc(Cl)ccc2c1CCCOc1cccc2ccccc12
[1]
  pKi: 6.64

## Cc1cc(OCCCc2c(C(=O)NS(=O)(=O)c3ccccc3)[nH]c3c(-c4c(C)n[nH]c4C)cccc23)cc(C)c1Cl
[1]
  pKi: > 8.00
[2]
  pKi: 6.29

## O=C(NS(=O)(=O)CCNC(=O)C1CCCCC1)c1[nH]c2cc(Cl)ccc2c1CCCOc1cccc2ccccc12
[1]
  pKi: 6.43

## Cc1cc(OCCCc2c(C(=O)NS(=O)(=O)CCNC(=O)c3cccn3Cc3ccccc3)[nH]c3ccccc23)cc(C)c1Cl
[1]
  pKi: 6.83

## Cc1cc(OCCCc2c(C(=O)NS(=O)(=O)CCNC(=O)c3cccn3C)[nH]c3ccccc23)cc(C)c1Cl
[1]
  pKi: 7.05

## Cc1cc(OCCCc2c(C(=O)NS(=O)(=O)c3ccc(C(=O)NCc4ccncc4)o3)[nH]c3c(-c4c(C)nn(C)c4C)c(Cl)ccc23)cc(C)c1Cl
[1]
  pKi: > 8.00
[2]
  pKi: 7.70
[3]
  pKi: 8.07
[4]
  pKi: < 4.30

## Cc1cc(OCCCc2c(C(=O)NS(=O)(=O)CCNC(=O)C(C)C)[nH]c3cc(Cl)ccc23)cc(C)c1Cl
[1]
  pKi: 7.18

## Cc1cc(OCCCc2c(C(=O)NS(=O)(=O)CCNC(=O)c3ccc(F)cc3)[nH]c3ccccc23)cc(C)c1Cl
[1]
  pKi: 6.93

## Cc1cc(OCCCc2c(C(=O)NS(=O)(=O)c3ccccc3)[nH]c3c(-c4c(C)nn(C)c4C)c(Cl)ccc23)cc(C)c1Cl
[1]
  pKi: > 8.00
[2]
  pKi: 7.19
[3]
  pKi: 7.77

## CCC(CC)C(=O)NCCS(=O)(=O)NC(=O)c1[nH]c2cc(Cl)ccc2c1CCCOc1cc(C)c(Cl)c(C)c1
[1]
  pKi: 7.80

## Cc1cc(OCCCc2c(C(=O)NS(=O)(=O)CCNC(=O)[C@@H]3Cc4ccccc4N3)[nH]c3cc(Cl)ccc23)cc(C)c1Cl
[1]
  pKi: 7.34

## Cc1cc(OCCCc2c(C(=O)NS(=O)(=O)CCNC(=O)c3cc4ccccc4o3)[nH]c3ccccc23)cc(C)c1Cl
[1]
  pKi: 6.51

## Cc1cc(OCCCc2c(C(=O)NS(=O)(=O)c3cccc(CNC(=O)c4cccn4C)c3)[nH]c3c(-c4c(C)nn(C)c4C)c(Cl)ccc23)cc(C)c1Cl
[1]
  pKi: > 8.00
[2]
  pKi: 7.04
[3]
  pKi: 8.00
[4]
  pKi: < 4.30

## Cc1cc(OCCCc2c(C(=O)NS(=O)(=O)CCNC(=O)c3ccc4cc[nH]c4c3)[nH]c3ccccc23)cc(C)c1Cl
[1]
  pKi: 6.56
